Publication PMC8922281, “Synthesis and In Vitro Biological Evaluation of Quinolinyl Pyrimidines Targeting Type II NADH-Dehydrogenase (NDH-2)” (ACS Infectious Diseases, 2022)
Values after ≈ are worked out from the molar mass of the structure shown. Values joined by “and” are separate entries in the source; they are usually repeats but may differ in a detail not shown here. Equal entries are not always repeated. Where two headings read alike, the source gives them in different places.

Legend:
MtNDH-2 [1] = target: T1, MtNDH-2 (Mycobacterium tuberculosis, UniProt P95160); assay: biochemical; set-up: species or system M. tuberculosis; conditions: MtNDH-2 IC50
MsNDH-2 = MsNDH-2 (Mycolicibacterium smegmatis, UniProt A0QYD6); assay: Inhibition of MsNDH-2 (NADH oxidation with menadione, absorbance at 340 nm); format: biochemical, M. smegmatis
[2] = test system: E. coli (ATCC 25922, wild-type); assay: MIC on ESKAPE pathogens, E. coli wild-type; format: cell-based; conditions: Escherichia coli, ATCC25922, read-out: MIC Ec WT
[3] = test system: E. coli (ΔtolC efflux-defective mutant, isogenic to ATCC 25922); assay: microbe, parasite or virus in culture; format: cell-based; conditions: Escherichia coli, ATCC25922, read-out: MIC Ec ΔtolC
[4] = test system: E. coli (D22, lpxC mutant, drug-hypersensitive); assay: microbe, parasite or virus in culture; format: cell-based; conditions: Escherichia coli, read-out: MIC Ec D22
[5] = test system: P. aeruginosa (PAO1, wild-type); assay: MIC on ESKAPE pathogens, P. aeruginosa wild-type; format: cell-based; conditions: Pseudomonas aeruginosa, PAO1, read-out: MIC Pa WT
[6] = test system: P. aeruginosa (PAO750 efflux-defective mutant, isogenic to PAO1); assay: microbe, parasite or virus in culture; format: cell-based; conditions: Pseudomonas aeruginosa, PAO1, read-out: MIC Pa efflux
[7] = test system: A. baumannii (ATCC 19606, wild-type); assay: MIC on ESKAPE pathogens, A. baumannii; format: cell-based; conditions: Acinetobacter baumannii, ATCC19606; A. baumannii ATCC 19606, wild-type; read-out: MIC Ab WT
[8] = test system: S. aureus (ATCC 29213, wild-type); assay: MIC on ESKAPE pathogens, S. aureus; format: cell-based; conditions: Staphylococcus aureus, ATCC29213
[9] = test system: M. tuberculosis strain H37Rv (ATCC 25618); assay: MIC on M. tuberculosis by resazurin reduction microplate assay (REMA); format: cell-based; conditions: Mycobacterium tuberculosis, M. tuberculosis H37Rv, read-out: MIC Mtb
[10] = Cytotoxicity on the MRC-5 cell line (resazurin); format: cell-based; conditions: human, MRC-5SV2 cells, MRC-5SV2, 3 days
In short: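 MRC-5SV2 cells, about 10^4 per well in Earl's MEM with 5% FCSi, were exposed to compounds for 3 days. Viability read fluorimetrically with resazurin (ex 550, em 590 nm) as % reduction versus untreated wells, giving CC50.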

MtNDH-2 [11] = target: T1, MtNDH-2; set-up: method as in PMID 24900541; conditions: reported earlier; cited from earlier work
[12] = test system: K. pneumonia (ATCC 13833, wild-type); assay: MIC on ESKAPE pathogens, K. pneumoniae
[13] = test system: Trypanosoma brucei brucei Squib 427; assay: Trypanosoma brucei growth (resazurin); format: cell-based; conditions: reference compound
Experimental: page 46: of PES (phenazine ethosulfate, 0.1 mg/ml) and NBT (Nitro Blue Tetrazolium Grade III, 2 mg/ml) in a new plate. The absorbance change was measured at 655nm. The results were shown as % reduction in parasitemia, compared to control wells with no treatment. […] A compound […] secondary screening. 3. Trypanosoma brucei sample has 7*104 parasites/ml in the suspension. Cultured for 3 days, the growth of the cells was assessed fluorimetrically with the addition of resazurin in a microtiter plate. The fluorescence intensity was measured after 24h at 37 °C with the excitation wavelength at 550nm and the emission wavelength at 590nm. The results were presented as % reduction in parasite growth, compared to reference wells with no treatment, followed by IC50 calculation. Suramine was used as the reference compound […] subsequently evaluated in a secondary assay, with broader concentration range, additional references, and other species. IC50 values are shown in Table S1, followed by semi-quantitative activity scores, and indications for specificity. […]

T1 sequence (P95160 2-463, added parts left off): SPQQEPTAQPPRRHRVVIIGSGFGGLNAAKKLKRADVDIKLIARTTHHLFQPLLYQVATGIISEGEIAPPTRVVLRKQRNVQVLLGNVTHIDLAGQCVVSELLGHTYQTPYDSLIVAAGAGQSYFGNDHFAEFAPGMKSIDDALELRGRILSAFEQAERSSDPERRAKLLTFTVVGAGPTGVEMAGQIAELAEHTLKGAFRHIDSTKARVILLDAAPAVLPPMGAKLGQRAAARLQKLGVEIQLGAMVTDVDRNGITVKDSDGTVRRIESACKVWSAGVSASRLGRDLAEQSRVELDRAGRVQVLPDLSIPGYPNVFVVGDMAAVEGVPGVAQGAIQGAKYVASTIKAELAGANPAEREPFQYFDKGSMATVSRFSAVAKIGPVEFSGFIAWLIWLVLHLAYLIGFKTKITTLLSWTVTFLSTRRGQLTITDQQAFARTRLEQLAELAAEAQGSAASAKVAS
MsNDH-2, sequence (A0QYD6 1-457): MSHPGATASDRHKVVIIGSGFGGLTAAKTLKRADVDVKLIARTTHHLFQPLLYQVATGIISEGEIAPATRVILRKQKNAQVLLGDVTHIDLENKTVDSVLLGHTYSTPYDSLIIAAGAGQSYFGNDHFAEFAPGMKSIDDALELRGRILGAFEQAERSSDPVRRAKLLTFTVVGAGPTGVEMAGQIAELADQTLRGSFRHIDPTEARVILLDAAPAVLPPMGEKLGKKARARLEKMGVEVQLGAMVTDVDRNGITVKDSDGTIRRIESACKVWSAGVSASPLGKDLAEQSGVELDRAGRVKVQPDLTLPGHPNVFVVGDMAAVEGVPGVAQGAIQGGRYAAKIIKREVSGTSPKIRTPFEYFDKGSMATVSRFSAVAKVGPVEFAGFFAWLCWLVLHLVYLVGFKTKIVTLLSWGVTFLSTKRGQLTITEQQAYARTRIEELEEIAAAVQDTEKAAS

SMILES: Cc1cccc(-c2cc(Nc3ccc4nc(-c5ccc(F)cc5)cc(N)c4c3)nc(N)n2)c1 [Compound 1, N^6-(2-Amino-6-m-tolylpyrimidin-4-yl)-2-(4-fluorophenyl)quinoline-4,6-diamine, reference compound]
- IC50 (MtNDH-2 [1]): 26 nM and 22.9 nM
- IC50 (MsNDH-2; 95% confidence interval in parentheses, 50 nM enzyme, 50 μM menadione, >100: no significant inhibition at 100 μM): 1600 nM
- IC50 (MsNDH-2; same IC50 given in μg/mL to assist comparisons with MICs): 1600 nM
- MIC [2]: > 128 µg/mL
- MIC [3]: 8 µg/mL (≈ 18.3 µM)
- MIC [4]: 4 µg/mL (≈ 9.16 µM)
- MIC [5]: > 128 µg/mL
- MIC [6]: 128 µg/mL (≈ 293 µM)
- MIC [7]: 64 µg/mL (≈ 147 µM)
- MIC [8]: 1 µg/mL (≈ 2.29 µM)
- MIC [9]: 2.6 µg/mL (≈ 5.96 µM)
- IC50 at 3 days ([10]; resazurin): 1300 nM
- IC50 at 3 days ([10]; value in parentheses): 0.6 µg/mL
- IC50 (MtNDH-2 [11]): 96 nM
- MIC Kp WT [12]: >128 µg/mL

SMILES: Cc1ccc(C(=O)Nc2ccc(S(=O)(=O)O)c3cc(S(=O)(=O)O)cc(S(=O)(=O)O)c23)cc1NC(=O)c1cccc(NC(=O)Nc2cccc(C(=O)Nc3cc(C(=O)Nc4ccc(S(=O)(=O)O)c5cc(S(=O)(=O)O)cc(S(=O)(=O)O)c45)ccc3C)c2)c1 [Suramine]
- IC50 [13]: 40 nM
